Consider ten compounds from ChEMBL document CHEMBL1134025, “Thiosugars. Part 9: synthesis and biological evaluation of some 4'-thio-L-arabino nucleoside analogues” (2001).

The test system of assay [1] is Mammalian orthoreovirus 1. Briefly: Minimum inhibitory concentration required to reduce Reo virus-1 induced cytopathogenicity by 50%. In kind it is functional, reo virus type 1.
For assay [2], the system named is Human alphaherpesvirus 3. As to the kind of experiment: Minimum inhibitory concentration required to reduce VZV induced cytopathogenicity by 50%. The assay is classed as functional. Background: Damage to the host cells serves as the signal in cytopathic effect assays.
Assay [3] has as its system Human respirovirus 3. As to the kind of experiment: Minimum inhibitory concentration required to reduce Parainfluenza-3 virus induced cytopathogenicity by 50%. In kind it is functional.
Assay [4] has as its system Human immunodeficiency virus 1. Briefly: Minimum inhibitory concentration required to reduce HIV-1 induced cytopathogenicity by 50%. The assay is classed as functional.
For assay [5], the system named is Punta Toro virus. Briefly: Minimum inhibitory concentration required to reduce Punta Toro virus induced cytopathogenicity by 50%. In kind it is functional.
Assay [6] has as its system Human betaherpesvirus 5. As to the kind of experiment: Minimum inhibitory concentration required to reduce HCMV induced cytopathogenicity by 50%. In kind it is functional.
Assay [7] deals with Vesicular stomatitis virus. As to the kind of experiment: Minimum inhibitory concentration required to reduce Vesicular stomatitis virus induced cytopathogenicity by 50%. In kind it is functional.
For assay [8], the system named is Respiratory syncytial virus. As to the kind of experiment: Minimum inhibitory concentration required to reduce Respiratory syncytial virus induced cytopathogenicity by 50%. The assay is classed as functional. The following applies: human respiratory syncytial virus.
Assay [9] deals with Sindbis virus. Briefly: Minimum inhibitory concentration required to reduce Sindbis virus induced cytopathogenicity by 50%. In kind it is functional.
Assay [10] deals with Human immunodeficiency virus 2. As to the kind of experiment: Minimum inhibitory concentration required to reduce HIV-2 induced cytopathogenicity by 50%. In kind it is functional.
Assay [11] has as its system Human alphaherpesvirus 1. Briefly: Minimum inhibitory concentration required to reduce HSV-1 induced cytopathogenicity by 50%. In kind it is functional.
For assay [12], the system named is Human alphaherpesvirus 2. Briefly: Minimum inhibitory concentration required to reduce HSV-2 induced cytopathogenicity by 50%. In kind it is functional.
The test system of assay [13] is Coxsackievirus B4. Briefly: Minimum inhibitory concentration required to reduce Coxsackie B4 virus induced cytopathogenicity by 50%. In kind it is functional. The following applies: Enterovirus B.
Assay [14] has as its system Human alphaherpesvirus 3. As to the kind of experiment: Cytotoxicity was evaluated against VZV at 200-400 uM; IA=inactive. The assay is classed as functional, organism-based.
The test system of assay [15] is Human alphaherpesvirus 1. Briefly: Cytotoxicity was evaluated against HSV-1 at 200-400 uM; IA=inactive. In kind it is functional, organism-based.
The test system of assay [16] is Human betaherpesvirus 5. As to the kind of experiment: Cytotoxicity was evaluated against HCMV at 200-400 uM; IA=inactive. The assay is classed as functional, organism-based.
For assay [17], the system named is Vesicular stomatitis virus.
Assay [18] deals with Punta Toro virus. As to the kind of experiment: Cytotoxicity was evaluated against Punta Toro virus at 200-400 uM; IA=inactive. In kind it is functional, organism-based.
Assay [19] concerns Respiratory syncytial virus. Briefly: Cytotoxicity was evaluated against Respiratory syncytial virus at 200-400 uM; IA=inactive. In kind it is functional, organism-based.
The subject of assay [20] is Human immunodeficiency virus 1. Briefly: Cytotoxicity was evaluated against HIV-1 at 200-400 uM; IA=inactive. In kind it is functional, organism-based.
In assay [21] the test system is Coxsackievirus B4. Briefly: Cytotoxicity was evaluated against Coxsackie B4 virus at 200-400 uM; IA=inactive. In kind it is functional, organism-based.
Assay [22] deals with Sindbis virus. Briefly: Cytotoxicity was evaluated against Sindbis virus at 200-400 uM; IA=inactive. The assay is classed as functional, organism-based.
A further assay concerns Vaccinia virus. Conditions: Orthopoxvirus vaccinia.
Assay [23] deals with Human alphaherpesvirus 2. As to the kind of experiment: Cytotoxicity was evaluated against HSV-2 at 200-400 uM; IA=inactive. The assay is classed as functional, organism-based.
Assay [24] relates to Mammalian orthoreovirus 1. Briefly: Cytotoxicity was evaluated against Reo virus-1 at 200-400 uM; IA=inactive. The assay is classed as functional, organism-based. Conditions: reo virus type 1.
In assay [25] the test system is Human respirovirus 3. Briefly: Cytotoxicity was evaluated against Parainfluenza-3 virus at 200-400 uM; IA=inactive. In kind it is functional, organism-based.
For assay [26], the system named is Human immunodeficiency virus 2. Briefly: Cytotoxicity was evaluated against HIV-2 at 200-400 uM; IA=inactive. In kind it is functional, organism-based.

Molecules are shown by their SMILES. In brackets after ≈: the same amount, converted by molar mass. Activity calls are given as the source filed them. No cut-off for these calls is given here.

As to `Nc1ccn(C2S[C@@H](CO)[C@H](O)[C@H]2O)c(=O)n1` (stereo partly drawn), the MIC (in assay [1]; in the assay on Human alphaherpesvirus 3 [2]; in the assay on Human respirovirus 3 [3]; in assay [4]; against Punta Toro virus [5]; in the assay with Human betaherpesvirus 5 [6]) was 400 mg/L (≈ 1540 µM) throughout. Besides, the MIC (in [7]; in assay [8]; in the assay with Sindbis virus [9]; in [10]; against Human alphaherpesvirus 1 [11]; in the assay on Human alphaherpesvirus 2 [12]) was 400 mg/L (≈ 1540 µM) in each case. In the assay on Coxsackievirus B4 [13], this compound gave an MIC of 400 mg/L (≈ 1540 µM).
As to `Nc1ncnc2c1ncn2[C@@H]1S[C@@H](CO)[C@H](O)[C@H]1O`, the MIC (in assay [1]; against Human alphaherpesvirus 3 [2]; with Human respirovirus 3 [3]; in assay [4]; with Punta Toro virus [5]; with Human betaherpesvirus 5 [6]) was 400 mg/L (≈ 1410 µM) in each case. For the same compound, the MIC (in assay [7]; in assay [8]; in the assay on Sindbis virus [9]; in assay [10]; in the assay with Human alphaherpesvirus 1 [11]; in the assay on Human alphaherpesvirus 2 [12]) was 400 mg/L (≈ 1410 µM) in each case. In addition, in the assay on Coxsackievirus B4 [13], the MIC is 400 mg/L (≈ 1410 µM).
In the case of `Nc1ncnc2c1ncn2C1S[C@@H](COCc2ccccc2)[C@H](OCc2ccccc2)[C@H]1OCc1ccccc1` (stereo partly drawn), the Cytotoxicity result (in the assay with Human alphaherpesvirus 3 [14]; in the assay with Human alphaherpesvirus 1 [15]; in the assay on Human betaherpesvirus 5 [16]; in [17]; with Punta Toro virus [18]; in assay [19]) was “inactive” throughout. Further, the Cytotoxicity result (in assay [20]; in the assay on Coxsackievirus B4 [21]; with Sindbis virus [22]; in the assay on Vaccinia virus; in the assay with Human alphaherpesvirus 2 [23]; in [24]) was “inactive” in each case. Further, the Cytotoxicity entry (in the assay with Human respirovirus 3 [25]; in [26]) was “inactive” throughout.
For the compound `C[C@@]1(n2ccc(N)nc2=O)CS[C@H](CO)O1`, the Cytotoxicity result (with Human alphaherpesvirus 3 [14]; in the assay with Human alphaherpesvirus 1 [15]; in the assay with Human betaherpesvirus 5 [16]; in [17]; in the assay with Punta Toro virus [18]; in assay [19]) was “inactive” throughout. The Cytotoxicity entry (in assay [20]; in the assay on Coxsackievirus B4 [21]; in the assay on Sindbis virus [22]; in the assay with Vaccinia virus; with Human alphaherpesvirus 2 [23]; in assay [24]) was “inactive” each time. For the same compound, the Cytotoxicity entry (in the assay on Human respirovirus 3 [25]; in assay [26]) was “inactive” each time.
As for `CC(=O)OC1S[C@@H](COCc2ccccc2)[C@H](OCc2ccccc2)[C@H]1OCc1ccccc1` (stereo partly drawn), the Cytotoxicity entry (with Human alphaherpesvirus 3 [14]; in the assay on Human alphaherpesvirus 1 [15]; with Human betaherpesvirus 5 [16]; in assay [17]; in the assay with Punta Toro virus [18]; in [19]) was “inactive” each time. Also, the Cytotoxicity entry (in assay [20]; with Coxsackievirus B4 [21]; in the assay with Sindbis virus [22]; in the assay on Vaccinia virus; in the assay on Human alphaherpesvirus 2 [23]; in assay [24]) was “inactive” throughout. In addition, the Cytotoxicity entry (with Human respirovirus 3 [25]; in assay [26]) was “inactive” throughout.
In the case of `O=c1[nH]c(=O)n(C2S[C@@H](CO)[C@H](O)[C@H]2O)cc1Cl` (stereo partly drawn), the Cytotoxicity result (in the assay on Human alphaherpesvirus 3 [14]; in the assay on Human alphaherpesvirus 1 [15]; in the assay with Human betaherpesvirus 5 [16]; in assay [17]; in the assay on Punta Toro virus [18]; in assay [19]) was “inactive” in each case. Besides, the Cytotoxicity result (in assay [20]; with Coxsackievirus B4 [21]; in the assay on Sindbis virus [22]; in the assay with Vaccinia virus; with Human alphaherpesvirus 2 [23]; in assay [24]) was “inactive” each time. The Cytotoxicity entry (in the assay with Human respirovirus 3 [25]; in [26]) was “inactive” each time.
As to `O=c1[nH]c(=O)n(C2S[C@@H](CO)[C@H](O)[C@H]2O)cc1F` (stereo partly drawn), the Cytotoxicity result (in the assay with Human alphaherpesvirus 3 [14]; with Human alphaherpesvirus 1 [15]; with Human betaherpesvirus 5 [16]; in assay [17]; in the assay with Punta Toro virus [18]; in assay [19]) was “inactive” each time. For the same compound, the Cytotoxicity result (in assay [20]; in the assay on Coxsackievirus B4 [21]; in the assay with Sindbis virus [22]; with Vaccinia virus; in the assay with Human alphaherpesvirus 2 [23]; in [24]) was “inactive” throughout. The Cytotoxicity entry (in the assay with Human respirovirus 3 [25]; in [26]) was “inactive” throughout.
For the compound `Nc1ccn(C2S[C@@H](COCc3ccccc3)[C@H](OCc3ccccc3)[C@H]2OCc2ccccc2)c(=O)n1` (stereo partly drawn), the Cytotoxicity result (in the assay with Human alphaherpesvirus 3 [14]; in the assay on Human alphaherpesvirus 1 [15]; in the assay on Human betaherpesvirus 5 [16]; in [17]; in the assay on Punta Toro virus [18]; in assay [19]) was “inactive” each time. In addition, the Cytotoxicity result (in assay [20]; in the assay with Coxsackievirus B4 [21]; in the assay on Sindbis virus [22]; with Vaccinia virus; in the assay with Human alphaherpesvirus 2 [23]; in assay [24]) was “inactive” each time. Further, the Cytotoxicity result (with Human respirovirus 3 [25]; in assay [26]) was “inactive” in each case.
For the compound `O=c1nc(-n2cncn2)ccn1C1S[C@@H](COCc2ccccc2)[C@H](OCc2ccccc2)[C@H]1OCc1ccccc1` (stereo partly drawn), the Cytotoxicity entry (in the assay with Human alphaherpesvirus 3 [14]; in the assay with Human alphaherpesvirus 1 [15]; with Human betaherpesvirus 5 [16]; in assay [17]; in the assay on Punta Toro virus [18]; in [19]) was “inactive” each time. Besides, the Cytotoxicity entry (in assay [20]; in the assay on Coxsackievirus B4 [21]; with Sindbis virus [22]; in the assay on Vaccinia virus; in the assay on Human alphaherpesvirus 2 [23]; in assay [24]) was “inactive” in each case. For the same compound, the Cytotoxicity result (with Human respirovirus 3 [25]; in assay [26]) was “inactive” throughout.
On to `O=c1[nH]c(=O)n(C2S[C@@H](CO)[C@H](O)[C@H]2O)cc1Br` (stereo partly drawn), for which the Cytotoxicity entry (in the assay on Human alphaherpesvirus 3 [14]; with Human alphaherpesvirus 1 [15]; with Human betaherpesvirus 5 [16]; in assay [17]; in the assay on Punta Toro virus [18]; in assay [19]) was “inactive” throughout. Besides, the Cytotoxicity result (in assay [20]; in the assay on Coxsackievirus B4 [21]; with Sindbis virus [22]; in the assay on Vaccinia virus; with Human alphaherpesvirus 2 [23]; in [24]) was “inactive” in each case. Further, the Cytotoxicity result (with Human respirovirus 3 [25]; in assay [26]) was “inactive” each time.
